{"source": "patent US9155301B2", "about": "“Antimicrobial agent comprising a cysteine component covalently bound to a substrate in particular by binding through an S-S bridge via a spacer molecule” (priority 2005, dated 2015)", "system": "Staphylococcus aureus (B5381, a clinical isolate)", "experiment": "Inhibition of bacterial growth in culture incubated with modified surface", "assay_type": "cell-based", "details": "Example 11; dissolved in culture at 50 μg/ml and 5 μg/ml; initial culture exceeding 4 million cfu/ml", "procedure": "The following analysis was performed with three (3) different strains of bacteria, but the applications are not limited to these: A clinical isolate (from a patient with sepsis) of Gram positive bacterium Staphylococcus aureus, (a clinical isolate B5381), the Gram positive bacterium Bacillus megaterium (strain Bm11), the Gram negative bacterium Escherichia coli (strain D21). This selection of bacteria comprises both Gram positive and Gram negative bacteria including bacteria that are of significant problems clinically.\n[…] LB medium (Luria Bertani broth) has been inoculated with specific bacterial strain, but not limited to this medium. The strain selected has been plated on an agar plate of selected medium the day before, and permitted to grow over night at 37° C. Several colonies were scraped from the plate and used to inoculate the medium which subsequently was allowed to grow up to an optical density of 0.4. […] The number of bacteria was determined by plating serial dilutions and counting colonies in the appropriate dilutions. […]\nSubsequent to incubation (in the presently described case: 2.5 h), the disc was removed from each tube using a sterile pair of tweezers. The culture in which the disc had been incubated was in parallel transferred to a separate sterile eppendorf tube, and its titer was determined as described. […]", "data": [{"smiles": "N[C@@H](CS)C(=O)O", "note": "[dissolved L-cysteine, L-cysteine]", "values": [{"measurement": "inhibition of growth in culture with dissolved substance", "result": "No inhibition"}]}]}
